Experimental findings from US11820773B2, “Tricyclic compounds” (ALIGOS THERAPEUTICS, INC., priority 2020, dated 2023) are described below.

Each structure is given as a SMILES string.

For the first assay, the system named is HBV. The assay can be described thus: HBV-DNA antiviral assay using HepG2.117 cells (intracellular HBV DNA by qPCR). The format is cell-based, genotype D HBV. The settings on record: HBV DNA inhibition, 3 days incubation, 2% DMSO. The gist of the method:
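Endpoints are intracellular HBV DNA by qPCR (interpolated from a gBlock standard curve) and ATP-based viability in duplicate plates. Doxycycline-free HepG2.117 Tet-off cells received compounds (9 concentrations, 4-fold steps, 2% DMSO) for 3 days. Inhibition normalised to DMSO wells; EC50/EC90/CC50 by curve fitting.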
(Real-time PCR tracks product formation cycle by cycle.)
Broadly, the EC50 is the concentration that produces a half-maximal response. Consider `Cc1nn[nH]c1-c1ccc(-n2c(=O)c3c(n4ncc(Cc5ccccc5)c24)CN(C(=O)c2ccc(Br)c(C(F)(F)F)c2)CC3)cc1` [Compound 35, 5-benzyl-12-[4-bromo-3-(trifluoromethyl)benzoyl]-7-[4-(4-methyl-1H-triazol-5-yl)phenyl]-2,3,7,12-tetrazatricyclo[7.4.0.0^2,6]trideca-1(9),3,5-trien-8-one], for which the concentration giving a half-maximal response (EC50) was less than 50 nM. Same read-out and setting: the value for `CC(C)Cc1cnn2c3c(c(=O)n(-c4ccc(-c5nncn5C)cc4)c12)C[C@@H](C)N(C(=O)c1ccc(Br)c(Cl)c1)C3` [Compound 60a, (11R)-12-(4-bromo-3-chlorobenzoyl)-11-methyl-7-[4-(4-methyl-1,2,4-triazol-3-yl)phenyl]-5-(2-methylpropyl)-2,3,7,12-tetraazatricyclo[7.4.0.0^{2,6}]trideca-1(9),3,5-trien-8-one] was less than 50 nM; that for `CC(C)Cc1cnn2c3c(c(=O)n(-c4ccc(-c5nncn5C)cc4)c12)C[C@H](C)N(C(=O)c1ccc(Br)c(Cl)c1)C3` [Compound 60b, (11S)-12-(4-bromo-3-chlorobenzoyl)-11-methyl-7-[4-(4-methyl-1,2,4-triazol-3-yl)phenyl]-5-(2-methylpropyl)-2,3,7,12-tetraazatricyclo[7.4.0.0^{2,6}]trideca-1(9),3,5-trien-8-one] was 50 to 500 nM.

Staying with this assay, now noted: Hepatitis B virus, 72 h, HBV DNA inhibition, 3 days incubation, 2% DMSO.
For the molecule `CNC(=O)c1ccc(-n2c(=O)c3c(n4ncc(Cc5ccsc5)c24)CN(C(=O)c2ccc(Br)c(C(F)(F)F)c2)CC3)cc1` [Compound 20, 4-[12-[4-bromo-3-(trifluoromethyl)benzoyl]-8-oxo-5-(3-thienylmethyl)-2,3,7,12-tetrazatricyclo[7.4.0.0^2,6]trideca-1(9),3,5-trien-7-yl]-N-methyl-benzamide], the concentration for a half-maximal effect (EC50) is less than 50 nM.

`CNc1nnc2cc(-n3c(=O)c4c(n5ncc(Cc6ccccc6)c35)CN(C(=O)c3ccc(Br)c(Cl)c3)CC4)ccn12` [Compound 23, 5-benzyl-12-(4-bromo-3-chloro-benzoyl)-7-[3-(methylamino)-[1,2,4]triazolo[4,3-a]pyridin-7-yl]-2,3,7,12-tetrazatricyclo[7.4.0.0^2,6]trideca-1(9),3,5-trien-8-one] returned an EC50 of less than 50 nM. Take `CNC(=O)c1ccc(-n2c(=O)c3c(n4ncc(CC5CC5)c24)CN(C(=O)c2ccc(Br)c(C(F)(F)F)c2)CC3)cc1` [Compound 24, 4-[12-[4-bromo-3-(trifluoromethyl)benzoyl]-5-(cyclopropylmethyl)-8-oxo-2,3,7,12-tetrazatricyclo[7.4.0.0^2,6]trideca-1(9),3,5-trien-7-yl]-N-methyl-benzamide]: the EC50 is less than 50 nM. The same measure, in the same setting: the value for `Cn1cnnc1-c1ccc(-n2c(=O)c3c(n4ncc(Cc5ccccc5)c24)CN(C(=O)c2ccc(Br)c(C(F)(F)F)c2)CC3)cc1` [Compound 25, 5-benzyl-12-[4-bromo-3-(trifluoromethyl)benzoyl]-7-[4-(4-methyl-1,2,4-triazol-3-yl)phenyl]-2,3,7,12-tetrazatricyclo[7.4.0.0^2,6]trideca-1(9),3,5-trien-8-one] was less than 50 nM. `CNc1n[nH]c2cc(-n3c(=O)c4c(n5ncc(Cc6ccccc6)c35)CN(C(=O)c3ccc(Br)c(C(F)(F)F)c3)CC4)ccc12` [Compound 26, 5-benzyl-12-[4-bromo-3-(trifluoromethyl)benzoyl]-7-[3-(methylamino)-1H-indazol-6-yl]-2,3,7,12-tetrazatricyclo[7.4.0.0^2,6]trideca-1(9),3,5-trien-8-one] yielded an EC50 of less than 50 nM. `CNc1n[nH]c2cc(-n3c(=O)c4c(n5ncc(CC6CC6)c35)CN(C(=O)c3ccc(Br)c(Cl)c3)CC4)ccc12` [Compound 27, 12-(4-bromo-3-chloro-benzoyl)-5-(cyclopropylmethyl)-7-[3-(methylamino)-1H-indazol-6-yl]-2,3,7,12-tetrazatricyclo[7.4.0.0^2,6]trideca-1(9),3,5-trien-8-one] yielded a concentration for a half-maximal effect (EC50) of less than 50 nM. `CNc1n[nH]c2cc(-n3c(=O)c4c(n5ncc(CC6CC6)c35)CN(C(=O)c3ccc(Br)c(C(F)(F)F)c3)CC4)ccc12` [Compound 28, 12-[4-bromo-3-(trifluoromethyl)benzoyl]-5-(cyclopropylmethyl)-7-[3-(methylamino)-1H-indazol-6-yl]-2,3,7,12-tetrazatricyclo[7.4.0.0^2,6]trideca-1(9),3,5-trien-8-one]: the EC50 is less than 50 nM. Same read-out and setting: the value for `CNC(=O)c1cc(-n2c(=O)c3c(n4ncc(Cc5ccccc5)c24)CN(C(=O)c2ccc(Br)c(C(F)(F)F)c2)CC3)nn1C` [Compound 29, 5-[5-benzyl-12-[4-bromo-3-(trifluoromethyl)benzoyl]-8-oxo-2,3,7,12-tetrazatricyclo[7.4.0.0^2,6]trideca-1(9),3,5-trien-7-yl]-N,2-dimethyl-pyrazole-3-carboxamide] was less than 50 nM; that for `CNc1nnc2cc(-n3c(=O)c4c(n5ncc(Cc6ccccc6)c35)CN(C(=O)c3ccc(Br)c(C(F)(F)F)c3)CC4)ccn12` [Compound 30, 5-benzyl-12-[4-bromo-3-(trifluoromethyl)benzoyl]-7-[3-(methylamino)-[1,2,4]triazolo[4,3-a]pyridin-7-yl]-2,3,7,12-tetrazatricyclo[7.4.0.0^2,6]trideca-1(9),3,5-trien-8-one] was less than 50 nM. Consider `Cc1nnc(-c2ccc(-n3c(=O)c4c(n5ncc(Cc6ccccc6)c35)CN(C(=O)c3ccc(Br)c(Cl)c3)CC4)cc2)n1C` [Compound 31, 5-benzyl-12-(4-bromo-3-chloro-benzoyl)-7-[4-(4,5-dimethyl-1,2,4-triazol-3-yl)phenyl]-2,3,7,12-tetrazatricyclo[7.4.0.0^2,6]trideca-1(9),3,5-trien-8-one], for which the concentration for a half-maximal effect (EC50) is less than 50 nM. Still for that read-out and setting: then `Cc1nnc(-c2ccc(-n3c(=O)c4c(n5ncc(Cc6ccccc6)c35)CN(C(=O)c3ccc(Br)c(C(F)(F)F)c3)CC4)cc2)n1C` [Compound 32, 5-benzyl-12-[4-bromo-3-(trifluoromethyl)benzoyl]-7-[4-(4,5-dimethyl-1,2,4-triazol-3-yl)phenyl]-2,3,7,12-tetrazatricyclo[7.4.0.0^2,6]trideca-1(9),3,5-trien-8-one], with less than 50 nM; and `Cn1cncc1-c1ccc(-n2c(=O)c3c(n4ncc(Cc5ccccc5)c24)CN(C(=O)c2ccc(Br)c(C(F)(F)F)c2)CC3)cc1` [Compound 33, 5-benzyl-12-[4-bromo-3-(trifluoromethyl)benzoyl]-7-[4-(3-methylimidazol-4-yl)phenyl]-2,3,7,12-tetrazatricyclo[7.4.0.0^2,6]trideca-1(9),3,5-trien-8-one], with less than 50 nM; and `Cc1cnnn1-c1ccc(-n2c(=O)c3c(n4ncc(Cc5ccccc5)c24)CN(C(=O)c2ccc(Br)c(C(F)(F)F)c2)CC3)cc1` [Compound 34, 5-benzyl-12-[4-bromo-3-(trifluoromethyl)benzoyl]-7-[4-(5-methyltriazol-1-yl)phenyl]-2,3,7,12-tetrazatricyclo[7.4.0.0^2,6]trideca-1(9),3,5-trien-8-one], with less than 50 nM. `Cc1ncnn1-c1ccc(-n2c(=O)c3c(n4ncc(Cc5ccccc5)c24)CN(C(=O)c2ccc(Br)c(C(F)(F)F)c2)CC3)cc1` [Compound 36, 5-benzyl-12-[4-bromo-3-(trifluoromethyl)benzoyl]-7-[4-(5-methyl-1,2,4-triazol-1-yl)phenyl]-2,3,7,12-tetrazatricyclo[7.4.0.0^2,6]trideca-1(9),3,5-trien-8-one] came in with an EC50 of less than 50 nM. Still for that read-out and setting: the value for `C#CCc1cnn2c3c(c(=O)n(-c4ccc(C(=O)NC)cc4)c12)CCN(C(=O)c1ccc(Br)c(C(F)(F)F)c1)C3` [Compound 42, 4-[12-[4-bromo-3-(trifluoromethyl)benzoyl]-8-oxo-5-prop-2-ynyl-2,3,7,12-tetrazatricyclo[7.4.0.0^2,6]trideca-1(9),3,5-trien-7-yl]-N-methyl-benzamide] was less than 50 nM; that for `C[C@@H]1Cc2c(n3ncc(Cc4ccccc4)c3n(-c3ccc(-n4nnnc4C(F)(F)F)cc3)c2=O)CN1C(=O)c1ccc(Br)c(C(F)(F)F)c1` [Compound 87, 5-benzyl-12-[4-bromo-3-(trifluoromethyl)benzoyl]-11-methyl-7-[4-[5-(trifluoromethyl)tetrazol-1-yl]phenyl]-2,3,7,12-tetrazatricyclo[7.4.0.0^2,6]trideca-1(9),3,5-trien-8-one] was 50 to 500 nM. With `CC(C)[C@H](N)C(=O)OCN(C)C(=O)c1ccc(-n2c(=O)c3c(n4ncc(CC5CC5)c24)CN(C(=O)c2ccc(Br)c(C(F)(F)F)c2)[C@@H](C)C3)cc1` [Compound 90, [[4-[(11S)-12-[4-bromo-3-(trifluoromethyl)benzoyl]-5-(cyclopropylmethyl)-11-methyl-8-oxo-2,3,7,12-tetrazatricyclo[7.4.0.0^2,6]trideca-1(9),3,5-trien-7-yl]benzoyl]-methylamino]methyl (2S)-2-amino-3-methyl-butanoate], the concentration for a half-maximal effect (EC50) is more than 5000 nM. Same read-out and setting: the value for `CC(C)[C@@H](N)C(=O)OCN(C)C(=O)c1ccc(-n2c(=O)c3c(n4ncc(CC5CC5)c24)CN(C(=O)c2ccc(Br)c(C(F)(F)F)c2)[C@H](C)C3)cc1` [Compound 106, [[4-[(11R)-12-[4-bromo-3-(trifluoromethyl)benzoyl]-5-(cyclopropylmethyl)-11-methyl-8-oxo-2,3,7,12-tetrazatricyclo[7.4.0.0^2,6]trideca-1(9),3,5-trien-7-yl]benzoyl]-methyl-amino]methyl (2S)-2-amino-3-methyl-butanoate] was less than 50 nM.
